From patent US6407233B1, “Halogen pyrimidines and its use thereof as parasite abatement means” (Bayer Aktiengesellschaft, priority 1996, dated 2002)

How the values were obtained:
[1] = tested on: Fusarium nivale var. nivale; experiment: Fusarium nivale (var. nivale) test (wheat)/curative; settings: curative (sprayed 24 hours after inoculation), application rate 250 g/ha, evaluated 4 days after inoculation
Description: Fusarium nivale (var. nivale) Test (Wheat)/curative
Solvent: 100 parts by weight of dimethylformamide
Emulsifier: 0.25 part by weight of alkylaryl polyglycol ether
To test for curative activity, young plants are sprayed with a conidia suspension of Fusarium nivale var. nivale.
The plants remain in an incubation cabin at 15° C. and a relative atmospheric humidity of 100% for 24 hours.
After the spray coating has dried on, the plants remain in a greenhouse under translucent incubation hoods at a temperature of about 15° C. and a relative atmospheric humidity of about 100%.
(§1) The test is evaluated 4 days after inoculation.

[2] = tested on: Fusarium nivale var. nivale; experiment: Fusarium nivale (var. nivale) test (wheat)/protective; settings: protective, application rate 250 g/ha, evaluated 4 days after inoculation
Description: Fusarium nivale (var. nivale) Test (Wheat)/protective
(§2) Solvent: 10 parts by weight of N-methylpyrrolidone
(§3) Emulsifier: 0.6 part by weight of alkylaryl polyglycol ether
After the spray coating has dried on, the plants are sprayed with a conidia suspension of Fusarium nivale var. nivale.
(§4) The plants are placed in a greenhouse at a temperature of about 15° C. and a relative atmospheric humidity of about 100% under translucent incubation hoods.
as §1

[3] = tested on: Pseudocercosporella herpotrichoides; experiment: Pseudocercosporella herpotrichoides test (wheat)/protective; type: in vivo; settings: protective, application rate 250 g/ha, evaluated 21 days after inoculation
Description: The test is evaluated 21 days after inoculation.

[4] = tested on: Erysiphe graminis f.sp. hordei; experiment: Erysiphe test (barley)/protective; type: in vivo; settings: protective, application rate 250 g/ha, evaluated 7 days after inoculation
Description: The test is evaluated 7 days after the inoculation.

[5] = tested on: Fusarium nivale var. majus; experiment: Fusarium nivale (var. majus) test (wheat)/protective; settings: protective, application rate 250 g/ha, evaluated 4 days after inoculation
Description: Fusarium nivale (var. Majus) Test (Wheat)/protective
as §2, §3
After the spray coating has dried on, the plants are sprayed with a conidia suspension of Fusarium nivale var. majus.
as §4, §1

[6] = tested on: Erysiphe graminis f.sp. hordei; experiment: Erysiphe test (barley)/curative; type: in vivo; settings: curative (sprayed 48 hours after inoculation), application rate 250 g/ha, evaluated 7 days after inoculation

## CCCc1ccccc1Oc1ncnc(Oc2ccccc2C(=NOC)C2=NOCCO2)c1F [Example 34]
[1]
  efficacy in comparison with the untreated control: 100%
[2]
  efficacy in comparison with the untreated control: 100%

## CON=C(C1=NOCCO1)c1ccccc1Oc1ncnc(Oc2ccccc2C(=O)NCc2ccccc2)c1F [Example 69]
[3]
  efficacy in comparison with the untreated control: 100%

## CON=C(C1=NOCCO1)c1ccccc1Oc1ncnc(Oc2ccccc2Cn2cncn2)c1F [Example 71]
[3]
  efficacy in comparison with the untreated control: 100%

## CON=C(C1=NOCCO1)c1ccccc1Oc1ncnc(Oc2ccccc2C2OCC(C)(C)CO2)c1F [Example 59]
[4]
  efficacy in comparison with the untreated control: 100%

## CON=C(C1=NOCCO1)c1ccccc1Oc1ncnc(Oc2cccc3c2CC(C)(C)O3)c1F [Example 42]
[5]
  efficacy in comparison with the untreated control: 100%

## CO/N=C(/C1=NOCCO1)c1ccccc1Oc1ncnc(Oc2ccccc2Cl)c1F [Example 1, 3-{1-[2-(4-<2-chlorophenoxy>-5-fluoropyrimid-6-yloxy)-phenyl]-1-(methoximino)-methyl}-5,6-dihydro-1,4,2-dioxazine]
[6]
  efficacy in comparison with the untreated control: 100%

## CON=C(C1=NOCCO1)c1ccccc1Oc1ncnc(Oc2ccccc2OCc2ccccc2)c1F [Example 33]
[5]
  efficacy in comparison with the untreated control: 100%

## CON=C(C1=NOCCO1)c1ccccc1Oc1ncnc(Oc2cc(C)cc(C)c2C)c1F [Example 14]
[5]
  efficacy in comparison with the untreated control: 100%

## C=C(C)Cc1ccccc1Oc1ncnc(Oc2ccccc2C(=NOC)C2=NOCCO2)c1F [Example 31]
[1]
  efficacy in comparison with the untreated control: 100%
